target: T1, BA/F3-FLT3-ITD + D835Y (Homo sapiens, UniProt P36888, D835Y, cells depend on it, form not given); experiment: Engineered BA/F3 cell growth assay, FLT3 ITD/D835Y; type: cell-based, murine; settings: 3 d growth
T1 sequence (P36888 with tags, fused parts or gaps INS600HVDFREYEYD/D835Y): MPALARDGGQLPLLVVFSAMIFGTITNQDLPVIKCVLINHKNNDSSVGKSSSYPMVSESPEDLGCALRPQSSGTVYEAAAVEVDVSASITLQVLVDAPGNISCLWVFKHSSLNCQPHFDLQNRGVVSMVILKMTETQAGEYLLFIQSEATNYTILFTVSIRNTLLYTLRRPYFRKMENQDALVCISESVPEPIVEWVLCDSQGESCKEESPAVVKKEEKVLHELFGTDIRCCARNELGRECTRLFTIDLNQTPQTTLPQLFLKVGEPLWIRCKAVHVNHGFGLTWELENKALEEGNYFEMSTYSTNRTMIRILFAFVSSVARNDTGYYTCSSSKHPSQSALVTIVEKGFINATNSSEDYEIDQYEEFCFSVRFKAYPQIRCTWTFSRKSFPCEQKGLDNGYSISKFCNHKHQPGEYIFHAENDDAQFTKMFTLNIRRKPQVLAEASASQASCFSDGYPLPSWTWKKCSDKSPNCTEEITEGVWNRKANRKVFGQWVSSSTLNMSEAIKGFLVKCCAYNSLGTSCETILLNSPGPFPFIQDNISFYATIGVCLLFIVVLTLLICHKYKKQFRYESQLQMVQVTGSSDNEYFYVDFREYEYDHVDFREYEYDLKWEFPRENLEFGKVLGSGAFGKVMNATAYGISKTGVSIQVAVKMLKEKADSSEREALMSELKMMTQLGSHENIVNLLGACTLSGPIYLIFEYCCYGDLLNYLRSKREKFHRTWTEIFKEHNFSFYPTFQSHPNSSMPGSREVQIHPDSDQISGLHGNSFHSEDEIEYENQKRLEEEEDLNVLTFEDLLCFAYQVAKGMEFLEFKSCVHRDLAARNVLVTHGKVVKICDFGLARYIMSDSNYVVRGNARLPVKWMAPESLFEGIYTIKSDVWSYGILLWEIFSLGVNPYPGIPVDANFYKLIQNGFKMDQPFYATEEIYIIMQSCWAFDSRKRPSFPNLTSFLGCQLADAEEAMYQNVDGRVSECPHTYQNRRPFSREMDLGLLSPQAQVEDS
In short: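 Murine Ba/F3 cells transfected with full-length FLT3 ITD/D835Y, grown without IL-3 so growth depends on FLT3. Seeded at 1×10^4 cells/well, 8-point 1:3 series to 1 μM top (0.2% DMSO), 3 days at 37 °C. CellTiter-Glo luminescence (ATP) versus concentration gave IC50.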

Row | SMILES | GI50
1 | Cc1ncc(NC(=O)Cc2ccc(-c3cnc(Nc4cnn(C(F)F)c4)nc3)cc2)cc1C(F)(F)F [Compound P-0210, 2-[4-[2-[[1-(difluoromethyl)pyrazol-4-yl]amino]pyrimidin-5-yl]phenyl]-N-[6-methyl-5-(trifluoromethyl)-3-pyridyl]acetamide] | 0.0001 to 10 µM
2 | COc1ncc(NC(=O)Cc2ccc(-c3cnc(Nc4cnn(C(F)F)c4)nc3)cc2)cc1C(F)(F)F [Compound P-0211, 2-[4-[2-[[1-(difluoromethyl)pyrazol-4-yl]amino]pyrimidin-5-yl]phenyl]-N-[6-methoxy-5-(trifluoromethyl)-3-pyridyl]acetamide] | 0.0001 to 10 µM
3 | COc1ncc(NC(=O)Cc2ccc(-c3cnc4[nH]c(C#CC(C)(C)O)cc4c3)cc2)cc1C(F)(F)F [Compound P-0214, 2-(4-(2-(3-hydroxy-3-methylbut-1-yn-1-yl)-1H-pyrrolo[2,3-b]pyridin-5-yl)phenyl)-N-(6-methoxy-5-(trifluoromethyl)pyridin-3-yl)acetamide] | 0.0001 to 10 µM
4 | COc1ncc(NC(=O)Cc2ccc(-c3cnc4[nH]c(C#CC(C)(C)C)cc4c3)cc2)cc1C(F)(F)F [Compound P-0219, 2-[4-[2-(3,3-dimethylbut-1-ynyl)-1H-pyrrolo[2,3-b]pyridin-5-yl]phenyl]-N-[6-methoxy-5-(trifluoromethyl)-3-pyridyl]acetamide] | 0.0001 to 10 µM
5 | COc1ncc(NC(=O)Cc2ccc(-c3cnc(Nc4cn[nH]c4C)nc3)cc2)cc1C(F)(F)F [Compound P-0221, N-[6-methoxy-5-(trifluoromethyl)-3-pyridyl]-2-[4-[2-[(5-methyl-1H-pyrazol-4-yl)amino]pyrimidin-5-yl]phenyl]acetamide] | 0.0001 to 10 µM
6 | COCCn1cc(Nc2ncc(-c3ccc(CC(=O)Nc4cc(C(F)(F)F)ccn4)cc3)cn2)cn1 [Compound P-0222, 2-[4-[2-[[1-(2-methoxyethyl)pyrazol-4-yl]amino]pyrimidin-5-yl]phenyl]-N-[4-(trifluoromethyl)-2-pyridyl]acetamide] | 0.0001 to 10 µM
7 | COc1ncc(NC(=O)Cc2ccc(-c3cnc4[nH]c(C#Cc5cncn5C)cc4c3)cc2)cc1C(F)(F)F [Compound P-0227, N-[6-methoxy-5-(trifluoromethyl)-3-pyridyl]-2-[4-[2-[2-(3-methylimidazol-4-yl)ethynyl]-1H-pyrrolo[2,3-b]pyridin-5-yl]phenyl]acetamide] | 0.0001 to 10 µM
8 | Cc1nn(C)cc1Nc1ncc(-c2ccc(CC(=O)Nc3cnc(C)c(C(F)(F)F)c3)cc2)cn1 [Compound P-0228, 2-[4-[2-[(1,3-dimethylpyrazol-4-yl)amino]pyrimidin-5-yl]phenyl]-N-[6-methyl-5-(trifluoromethyl)-3-pyridyl]acetamide] | 0.0001 to 10 µM
9 | Cc1ncc(NC(=O)Cc2ccc(-c3cnc(Nc4cnn(C)c4C)nc3)cc2)cc1C(F)(F)F [Compound P-0229, 2-[4-[2-[(1,5-dimethylpyrazol-4-yl)amino]pyrimidin-5-yl]phenyl]-N-[6-methyl-5-(trifluoromethyl)-3-pyridyl]acetamide] | 0.0001 to 10 µM
10 | O=C(Cc1ccc(-c2cnc(Nc3cnn(C4CC4)c3)nc2)cc1)Nc1cncc(C(F)(F)F)c1 [Compound P-0231, 2-[4-[2-[(1-cyclopropylpyrazol-4-yl)amino]pyrimidin-5-yl]phenyl]-N-[5-(trifluoromethyl)-3-pyridyl]acetamide] | 0.0001 to 10 µM
11 | Cc1ncc(NC(=O)Cc2ccc(-c3cnc(Nc4cnn(C5CC5)c4)nc3)cc2)cc1C(F)(F)F [Compound P-0232, 2-[4-[2-[(1-cyclopropylpyrazol-4-yl)amino]pyrimidin-5-yl]phenyl]-N-[6-methyl-5-(trifluoromethyl)-3-pyridyl]acetamide] | 0.0001 to 10 µM
12 | O=C(Cc1ccc(-c2cnc(Nc3cnn(C4CC4)c3)nc2)cc1)Nc1cnc(Cl)c(C(F)(F)F)c1 [Compound P-0233, N-[6-chloro-5-(trifluoromethyl)-3-pyridyl]-2-[4-[2-[(1-cyclopropylpyrazol-4-yl)amino]pyrimidin-5-yl]phenyl]acetamide] | 0.0001 to 10 µM
13 | COc1ncc(NC(=O)Cc2ccc(-c3cnc(Nc4cnn(C5CC5)c4)nc3)cc2)cc1C(F)(F)F [Compound P-0234, 2-[4-[2-[(1-cyclopropylpyrazol-4-yl)amino]pyrimidin-5-yl]phenyl]-N-[6-methoxy-5-(trifluoromethyl)-3-pyridyl]acetamide] | 0.0001 to 10 µM
14 | O=C(Cc1ccc(-c2cnc(Nc3cnn(C4CC4)c3)nc2)cc1)Nc1ccc(C(F)(F)F)nc1 [Compound P-0235, 2-[4-[2-[(1-cyclopropylpyrazol-4-yl)amino]pyrimidin-5-yl]phenyl]-N-[6-(trifluoromethyl)-3-pyridyl]acetamide] | 0.0001 to 10 µM
15 | O=C(Cc1ccc(-c2cnc(Nc3cnn(C4CC4)c3)nc2)cc1)Nc1ccc(C(F)(F)F)cn1 [Compound P-0236, 2-[4-[2-[(1-cyclopropylpyrazol-4-yl)amino]pyrimidin-5-yl]phenyl]-N-[5-(trifluoromethyl)-2-pyridyl]acetamide] | 0.0001 to 10 µM
16 | O=C(Cc1ccc(-c2cnc(Nc3cnn(C4CC4)c3)nc2)cc1)Nc1cc(C(F)(F)F)ccn1 [Compound P-0237, 2-[4-[2-[(1-cyclopropylpyrazol-4-yl)amino]pyrimidin-5-yl]phenyl]-N-[4-(trifluoromethyl)-2-pyridyl]acetamide] | 0.0001 to 10 µM
17 | O=C(Cc1ccc(-c2cnc(Nc3cnn(C4CC4)c3)nc2)cc1F)Nc1cncc(C(F)(F)F)c1 [Compound P-0238, 2-[4-[2-[(1-cyclopropylpyrazol-4-yl)amino]pyrimidin-5-yl]-2-fluoro-phenyl]-N-[5-(trifluoromethyl)-3-pyridyl]acetamide] | 0.0001 to 10 µM
18 | Cc1ncc(NC(=O)Cc2ccc(-c3cnc(Nc4cnn(C5CC5)c4)nc3)cc2F)cc1C(F)(F)F [Compound P-0239, 2-[4-[2-[(1-cyclopropylpyrazol-4-yl)amino]pyrimidin-5-yl]-2-fluoro-phenyl]-N-[6-methyl-5-(trifluoromethyl)-3-pyridyl]acetamide] | 0.0001 to 10 µM
19 | O=C(Cc1ccc(-c2cnc(Nc3cnn(C4CC4)c3)nc2)cc1F)Nc1cnc(Cl)c(C(F)(F)F)c1 [Compound P-0240, N-[6-chloro-5-(trifluoromethyl)-3-pyridyl]-2-[4-[2-[(1-cyclopropylpyrazol-4-yl)amino]pyrimidin-5-yl]-2-fluoro-phenyl]acetamide] | 0.0001 to 10 µM
20 | COc1ncc(NC(=O)Cc2ccc(-c3cnc(Nc4cnn(C5CC5)c4)nc3)cc2F)cc1C(F)(F)F [Compound P-0241, 2-[4-[2-[(1-cyclopropylpyrazol-4-yl)amino]pyrimidin-5-yl]-2-fluoro-phenyl]-N-[6-methoxy-5-(trifluoromethyl)-3-pyridyl]acetamide] | 0.0001 to 10 µM
21 | O=C(Cc1ccc(-c2cnc(Nc3cnn(C4CC4)c3)nc2)cc1F)Nc1ccc(C(F)(F)F)nc1 [Compound P-0242, 2-[4-[2-[(1-cyclopropylpyrazol-4-yl)amino]pyrimidin-5-yl]-2-fluoro-phenyl]-N-[6-(trifluoromethyl)-3-pyridyl]acetamide] | 0.0001 to 10 µM
22 | O=C(Cc1ccc(-c2cnc(Nc3cnn(C4CC4)c3)nc2)cc1F)Nc1ccc(C(F)(F)F)cn1 [Compound P-0243, 2-[4-[2-[(1-cyclopropylpyrazol-4-yl)amino]pyrimidin-5-yl]-2-fluoro-phenyl]-N-[5-(trifluoromethyl)-2-pyridyl]acetamide] | 0.0001 to 10 µM
23 | O=C(Cc1ccc(-c2cnc(Nc3cnn(C4CC4)c3)nc2)cc1F)Nc1cc(C(F)(F)F)ccn1 [Compound P-0244, 2-[4-[2-[(1-cyclopropylpyrazol-4-yl)amino]pyrimidin-5-yl]-2-fluoro-phenyl]-N-[4-(trifluoromethyl)-2-pyridyl]acetamide] | 0.0001 to 10 µM
24 | CCn1cc(Nc2ncc(-c3ccc(CC(=O)Nc4cnc(OC)c(C(F)(F)F)c4)cc3F)cn2)cn1 [Compound P-0246, 2-[4-[2-[(1-ethylpyrazol-4-yl)amino]pyrimidin-5-yl]-3-fluoro-phenyl]-N-[6-methoxy-5-(trifluoromethyl)-3-pyridyl]acetamide] | 0.0001 to 10 µM
25 | CCn1cc(Nc2ncc(-c3cc(F)c(CC(=O)Nc4cnc(OC)c(C(F)(F)F)c4)cc3F)cn2)cn1 [Compound P-0247, 2-[4-[2-[(1-ethylpyrazol-4-yl)amino]pyrimidin-5-yl]-2,5-difluoro-phenyl]-N-[6-methoxy-5-(trifluoromethyl)-3-pyridyl]acetamide] | 0.0001 to 10 µM
26 | CCn1cc(Nc2ncc(-c3ccc(CC(=O)Nc4cnc(C)c(C(F)(F)F)c4)cc3F)cn2)cn1 [Compound P-0248, 2-[4-[2-[(1-ethylpyrazol-4-yl)amino]pyrimidin-5-yl]-3-fluoro-phenyl]-N-[6-methyl-5-(trifluoromethyl)-3-pyridyl]acetamide] | 0.0001 to 10 µM

Reference: patent publication US10160747B2, “Compounds and methods for kinase modulation, and indications therefor” (Plexxikon Inc., priority 2016, dated 2018)
